Measurements: patent publication US11479568B2, “Silacrown ethers, pharmaceutical compositions thereof, and therapeutic applications thereof” (priority 2020, dated 2022)

Key:
[1] = test system: vascular smooth muscle tissue; experiment: Vascular tissue contractile response (muscle bath, KCl-contracted tissue); assay type: cell-based, white New Zealand rabbits and human; settings: cumulative 10^-8 to 10^-5 M, tissue contracted with KCl, FIG. 1 and FIG. 2
Description: Ginsburg (Stanford University Medical School), crown and silacrown ethers in concentrations of 10^−8M, 10^−7 M, 10^−6 M and 10^−5M were prepared fresh daily in deionized water. The 10^−5 M concentrations were used for the preliminary screening of the ionophores for vasoactivity to determine the most promising candidates. The procedures utilized in the removal and preparation of vascular smooth muscle tissue obtained from aorta of white New Zealand rabbits and human hearts from transplant patients are well established and have been successfully utilized by the personnel at Stanford University Medical School (Cardiology Department). A computer interfaced muscle bath system designed by Dr. Robert Ginsburg and associates was used to carry out the experimental procedure. The chambers (32 per system) were filled with standard Tyrode solution (chambers maintain a constant volume of 100 ml) and aerated continuously. The tissues were placed in the chambers and connected to stainless steel hooks to a linear motion transducer and preequilibrated for 1.5 hours at a constant temperature of 37° C. (a tension of 0.5 g was maintained during the pre-equilibration period).
A starting tension of approximately 0.5 g was achieved before adding the agonist ([…] KCl final concentration) to contract the tissues. After the contractions leveled off, the tensions were recorded before and after the crown ethers were added. To test for tissue integrity, 10^−5 M nitroglycerin was added at the end of the experiment (some relaxation should be observed), and the tension was recorded. […]
Accumulative dose response curves were obtained by repeating the previous procedure on both human and rabbit vascular smooth muscle tissues as previously described. However, crown ether concentrations of 10^−8 M, 10^−7 M, 10^−6 M and 10^−5 M were added accumulatively instead of only one dose (10^−5 M was used to screen the crowns) and the tensions recorded for each concentration (before the next concentration of ionophore was added, the contractile tension of the tissue had leveled off).

[2] = test system: mice; settings: reported by Gad et al.; cited from earlier work
[3] = test system: adult albino Sprague-Dawley rats; experiment: Acute oral toxicity study in rats (GLP); assay type: in vivo, rat
Text: (§1) No mortality was observed during the study. […] Animals were asymptomatic by day 3. […] Thus, crown ethers and silacrown ethers of similar cavity size behave similarly, but the silacrown ethers have dramatically lower toxicity.

[4] = Acute oral toxicity study in rats (GLP); assay type: in vivo, rat; settings: rat, in vivo, adult albino Sprague-Dawley rats
Text: as §1

Row | Molecule | contractile response of vascular smooth muscle tissue (relaxation) [1] | LD50 acute oral toxicity [2] [mg/kg] | further results
1 | 12-crown-6 [Example 12-crown-6] | similar | – | –
2 | C[Si]1(C)OCCOCCOCCO1 [1,1-dimethylsila-11-crown-4] | similar | – | –
3 | C1COCCOCCOCCO1 [Example 12-crown-4, 12-crown-4] | – | 2830 | –
4 | C1COCCOCCOCCOCCO1 [Example 15-crown-5, 15-crown-5] | – | 2100 | –
5 | C1CCC2OCCOCCOC3CCCCC3OCCOCCOC2C1 (stereo not drawn) [dicyclohexano-18-crown-6] | – | 176 | –
6 | C1CCC2OCCOCCOCCOC3CCCCC3OCCOCCOCCOC2C1 (stereo not drawn) [dicyclohexano-24-crown-8] | – | 75 | –
7 | C[Si]1(C)OCCOCCOCCOCCO1 [dimethylsila-14-crown-5] | – | – | acute oral LD50 [3]: 9,900 mg/kg
8 | C[Si]1(C)OCCOCCOCCOC2CCCCC2O1 (stereo not drawn) [dimethylsila-14-cyclohexylcrown-5, Dimethylsila-14-cyclohexylcrown-5] | – | – | LD50 [4]: > 5000 mg/kg
9 | C[Si]1(C)OCCOCCOCCOCCOCCO1 [dimethylsila-17-crown-6] | similar | – | –
